Measurements as given in US5437980A, “Phenanthridium dye staining of nucleic acids in living cells” (Molecular Probes, Inc., priority 1993, dated 1995).
“Also recorded” adds a separate entry of the source.

What was measured:
mushroom spores = assay: Staining of mushroom spores by fluorescence microscopy (Example 4); type: cell-based, agaric; settings: 10-20 μM dye, 30 min, room temperature
Method: Spores are rinsed from the gills on the underside of the cap of an agaric using a stream of distilled water. The spores are concentrated by centrifugation for 30 sec at 10,000 rpm in a microcentrifuge then a minimal volume of a 10-20 μM solution of the 5-DAPP/LIVE dye in distilled water is added. The suspension is incubated with the dye for 30 min at room temperature then a 15 μL aliquot of the suspension is mounted on between a coverglass and the slide for viewing in the presence of the dye. The cellular fluorescence is observed on a Zeiss Axioplan fluorescence microscope using fluorescein (long:pass emission) or rhodamine filter sets.

Saccharomyces = assay: Staining of yeast (Example 5); type: cell-based; settings: 10 μM dye, 30 min, 37° C.
Method: Yeast cells are washed by centrifugation and then resuspended in a solution of 2% glucose and 10 mM Na-HEPES, pH 7.4 to a cell density of between 5×10^5 and 2×10^6 cells/mL optical density at 410 nm (previously calibrated with YPD agar plate colony counts). Sufficient 10 mM stock solution of the 5-DAPP/LIVE dye in DMSO is added to effect a final concentration of 10 μM of the dye in the medium. The suspension is incubated for 30 min at 37° C. then 15 μL are placed between a coverglass and the microscope slide. The cellular fluorescence is observed using fluorescein (long-pass emission) or rhodamine filter sets.

[1] = test system: free-living ciliate and flagellate protozoans; assay: Staining of protozoa (Example 7); type: cell-based; settings: 1 μL of 10 mM dye in 1 mL culture, 10 min, ambient temperature
Method: 1 μL of 10 mM the 5-DAPP/LIVE dye stock is added to 1 mL of protozoan culture. The medium is incubated for 10 min at ambient temperature. 15 μL of this preparation is mounted with dye between a coverglass and the slide. Using this procedure, the nuclei of most cells of the free-living ciliate and flagellate protozoans are stained under these conditions.

gram-negative bacteria = settings: mild conditions; application Ser. No. 08/047,683; cited from earlier work

CCCCCC[n+]1c(-c2ccccc2)c2cc(N)ccc2c2ccc(N)cc21 [hexidium]
staining of spores (in words) (mushroom spores): stains all spores brightly; also recorded: stained most effectively
staining distribution and intensity (Saccharomyces): less of a hazy cytoplasmic stain and more distinct nuclei
staining of nuclei of protozoans [1]: slightly better than octidium
staining of live gram-negative bacteria (gram-negative bacteria): lightly stain some gram negative organisms
